The source of these data is US20030186281A1, “Modified tetracycline repressor protein compositions and methods of use” (priority 2001, published 2003).

In this assay the test system is tet operator sequence. The experiment in a line: β-galactosidase activity of a tetracycline-regulated promoter in transformed E. coli with revTetR, in the presence and absence of anhydrotetracycline (atc). The class given is cell-based, Escherichia coli. The note with it: FIG. 2. The method, then:
The relative activity of revTetR repressors was determined at 28° C. and 37° C. for each clone by measuring β-galactosidase activity of a tetracycline-regulated promoter in transformed Escherichia coli in the presence and absence of the tetracycline analog, anhydrotetracycline (atc). The relative β-galactosidase activity was measured in standard Miller units and is presented as the percent of maximal expression as measured in the absence of Tet repressor. […] With respect to each mutant, as well as the wild-type controls, FIG. 2 provides two horizontal bars; the upper horizontal bar represents the level of β-galactosidase activity in the absence of anhydrotetracycline (−atc) while the lower horizontal bar represents the level of β-galactosidase activity in the presence of anhydrotetracycline (+atc). […]
The ability of each revTetR clone to bind to its cognate tet operator sequence and regulate transcription in a prokaryotic organism, Escherichia coli, in the presence and absence of a tetracycline analog (anhydrotetracycline, atc) was determined (Table 3, FIG. 2). […]

In the case of `Cc1c2c(c(O)c3c(O)cccc13)C(=O)[C@]1(O)C(=O)C(C(N)=O)=C(O)[C@@H](N(C)C)[C@@H]1C2` [anhydrotetracycline, reference compound], the “repression of transcription in prokaryotic organisms by the tetracycline analog (with revTetR)” value is given as “about 50 fold”.
